The results in this text go back to patent publication US12378243B2, “Quinoline compounds as inhibitors of KRAS” (Incyte Corporation, priority 2021, dated 2025).

The target in one data set is KRAS G12D (Homo sapiens, UniProt P01116, G12D). Nature of the data set: GDP-GTP exchange assay, KRAS G12D. In kind it is biochemical. The conditions noted are these: bodipy-loaded KRAS G12D 2.5 nM, GppNHp 500 uM, SOS1 150 nM; 4 hours pre-incubation, 2 hours incubation; read-out: G12D_exchange. A digest of the protocol: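 Nucleotide exchange started with 1 mM GppNHp and 300 nM SOS1, then 2 h at ambient temperature. IC50 from four-parameter logistic fit with variable Hill slope.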
Sequence of KRAS G12D (P01116 1-188 isoform P01116-2 G12D): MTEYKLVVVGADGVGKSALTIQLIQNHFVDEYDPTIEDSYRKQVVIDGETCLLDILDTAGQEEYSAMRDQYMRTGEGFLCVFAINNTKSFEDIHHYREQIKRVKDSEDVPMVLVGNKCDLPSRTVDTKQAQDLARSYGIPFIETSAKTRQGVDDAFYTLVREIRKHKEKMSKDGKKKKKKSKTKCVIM

The target in a further data set is KRAS G12V mutant (Homo sapiens, UniProt P01116, G12V). As to the kind of experiment: GDP-GTP exchange assay, KRAS G12V. It counts as biochemical. The note with it: bodipy loaded KRAS G12V 2.5 nM; 3 hours incubation after adding GppNHp-SOS1 mixture; read-out: G12V_exchange.
Sequence of KRAS G12V mutant (P01116 1-188 isoform P01116-2 G12V): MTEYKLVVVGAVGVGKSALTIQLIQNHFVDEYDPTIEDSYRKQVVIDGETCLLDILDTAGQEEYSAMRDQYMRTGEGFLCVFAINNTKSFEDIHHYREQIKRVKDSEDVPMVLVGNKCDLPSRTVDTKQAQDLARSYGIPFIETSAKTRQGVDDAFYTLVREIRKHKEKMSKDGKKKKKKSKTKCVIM
The test system of another data set is Caco-2 cells. Nature of the data set: Caco2 assay (permeability, A-B). In kind it is in vitro ADME. The conditions noted are these: Papp absorptive direction (A-B), test compound 50 μM, 120 minutes at 37° C. Put shortly: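 Caco-2 monolayers grown 22-25 days on Transwells, used only at TEER ≥300 Ω·cm^2. Compound at 50 μM in HBSS added apically, receiver HBSS with 4% BSA; 120 min at 37 °C. LCMS quantification; Papp from receiver flux slope, membrane area and initial donor amount.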
A general note: Passage across Caco-2 layers is used to estimate intestinal permeability.

Regarding `Cc1nc2c(F)c(-c3cccc(F)c3Cl)c(CCC#N)cc2c2c1cc([C@H]1CCCN1C(=O)C1CC1)n2[C@H]1[C@H]2CN[C@@H]1C2` [Example 34, 3-(1-((1R,4R,5S)-2-Azabicyclo[2.1.1]hexan-5-yl)-7-(2-chloro-3-fluorophenyl)-2-((R)-1-(cyclopropanecarbonyl)pyrrolidin-2-yl)-6-fluoro-4-methyl-1H-pyrrolo[3,2-c]quinolin-8-yl)propanenitrile], the IC50 at KRAS G12D is below 0.1 µM; at KRAS G12V mutant, 0.1 to 1 µM. Also, the Caco-2 entry with Caco-2 cells (Table 4) was “+ (a Caco-2 value of 50.5)”.
For `Cc1cc2c(O[C@@H](C)[C@@H]3CCCN3C)nc3c(F)c(-c4cccc5ccc(F)cc45)c(CCC#N)cc3c2n1[C@H]1[C@H]2CN[C@@H]1C2` [Example 27, 3-(1-((1R,4R,5S)-2-Azabicyclo[2.1.1]hexan-5-yl)-6-fluoro-7-(7-fluoronaphthalen-1-yl)-2-methyl-4-((S)-1-((S)-1-methylpyrrolidin-2-yl)ethoxy)-1H-pyrrolo[3,2-c]quinolin-8-yl)propanenitrile], the IC50 at KRAS G12D and at KRAS G12V mutant was below 0.1 µM each time. For the same compound, the Caco-2 result with Caco-2 cells (Table 3) is reported as “+ (a Caco-2 value of 50.5)”.
Take `Cc1nc2c(F)c(-c3cccc4ccc(F)cc34)c(CCC#N)cc2c2c1cc(CN1CCN(C)CC1=O)n2[C@H]1[C@H]2CN[C@@H]1C2` [Example 15, 3-(1-((1R,4R,5S)-2-Azabicyclo[2.1.1]hexan-5-yl)-6-fluoro-7-(7-fluoronaphthalen-1-yl)-4-methyl-2-((4-methyl-2-oxopiperazin-1-yl)methyl)-1H-pyrrolo[3,2-c]quinolin-8-yl)propanenitrile]: the IC50 was below 0.1 µM on KRAS G12D and 0.1 to 1 µM at KRAS G12V mutant. Moreover, the Caco-2 entry with Caco-2 cells (Table 3) is “++ (a Caco-2 value of >0.5 but ≤1)”.
On to `CNC(=O)c1ncc(-c2nc3c(F)c(-c4cccc(Cl)c4Cl)c(CCC#N)cc3c3c2cc([C@H]2CCCN2C(=O)OC)n3[C@H]2[C@H]3CN[C@@H]2C3)cc1F` [Example 39, Methyl (2R)-2-(1-((1R,4R,5S)-2-azabicyclo[2.1.1]hexan-5-yl)-8-(2-cyanoethyl)-7-(2,3-dichlorophenyl)-6-fluoro-4-(5-fluoro-6-(methylcarbamoyl)pyridin-3-yl)-1H-pyrrolo[3,2-c]quinolin-2-yl)pyrrolidine-1-carboxylate], for which the IC50 on KRAS G12D and at KRAS G12V mutant was below 0.1 µM in each case. Besides, the Caco-2 result in the data set on Caco-2 cells (Table 4) is listed as “++ (a Caco-2 value of >0.5 but ≤1)”.
Regarding `Cc1cc(C(C)c2cc3c(C)nc4c(F)c(-c5cccc(Cl)c5C)c(CCC#N)cc4c3n2[C@H]2[C@H]3CN[C@@H]2C3)c(=O)n(C)n1` (stereo partly drawn) [Example 67, 3-(1-((1R,4R,5S)-2-azabicyclo[2.1.1]hexan-5-yl)-7-(3-chloro-2-methylphenyl)-2-(1-(2,6-dimethyl-3-oxo-2,3-dihydropyridazin-4-yl)ethyl)-6-fluoro-4-methyl-1H-pyrrolo[3,2-c]quinolin-8-yl)propanenitrile], the IC50 on KRAS G12D and at KRAS G12V mutant was below 0.1 µM each time. Besides, the Caco-2 result with Caco-2 cells (Table 4) is given as “+++ (a Caco-2 value of >1)”.
For `Cc1nc2c(F)c(-c3cccc(Cl)c3Cl)c(CCC#N)cc2c2c1cc([C@H]1C[C@H]3C[C@H]3N1C(=O)C1(F)CC1)n2[C@H]1[C@H]2CN[C@@H]1C2` [Example 64, 3-(1-((1R,4R,5S)-2-Azabicyclo[2.1.1]hexan-5-yl)-7-(2,3-dichlorophenyl)-6-fluoro-2-((1R,3R,5R)-2-(1-fluorocyclopropane-1-carbonyl)-2-azabicyclo[3.1.0]hexan-3-yl)-4-methyl-1H-pyrrolo[3,2-c]quinolin-8-yl)propanenitrile], the results for the IC50 at KRAS G12D and at KRAS G12V mutant were below 0.1 µM and 0.1 to 1 µM, respectively. In addition, the Caco-2 result with Caco-2 cells (Table 4) is listed as “+++ (a Caco-2 value of >1)”.
With `Cc1cnc(-c2nc3c(F)c(-c4cc(O)cc5ccccc45)c(CCC#N)cc3c3c2cc(C)n3[C@H]2[C@H]3CN[C@@H]2C3)cn1` (single isomer, unassigned) [Example 14], the IC50 on KRAS G12D and at KRAS G12V mutant was below 0.1 µM throughout. The Caco-2 result in the data set with Caco-2 cells (Table 3) is given as “++ (a Caco-2 value of >0.5 but ≤1)”.
